Data published in US20230072683A1, “PYRIDO-PYRIMIDIN DERIVATIVES AND PHARMACEUTICAL COMPOSITION, FOR USE IN PREVENTING OR TREATING PI3 KINASE RELATED DISEASES, COMPRISING SAME AS ACTIVE INGREDIENT” (BORYUNG PHARMACEUTICAL CO., LTD, priority 2019, published 2023).
Where two headings read alike, the source gives them in different places.

Experiments:
[1] = target: PI3K-δ (PI3K(p1108/p857) (h)) (Homo sapiens, UniProt O00329); test: Evaluation of inhibitory activity against PI3K-δ (HTRF kinase assay); type: biochemical; conditions: for inhibition at 0.01 µM: compound concentration 0.01 μM, read-out: EXP_VALUE(% Inhibition) PI3K-δ 0.01 μM; for inhibition at 0.1 µM: read-out: EXP_VALUE(% Inhibition) PI3K-δ 0.1 μM
Sequence of PI3K-δ (PI3K(p1108/p857) (h)) (O00329 whole entry, the tested form may be a part): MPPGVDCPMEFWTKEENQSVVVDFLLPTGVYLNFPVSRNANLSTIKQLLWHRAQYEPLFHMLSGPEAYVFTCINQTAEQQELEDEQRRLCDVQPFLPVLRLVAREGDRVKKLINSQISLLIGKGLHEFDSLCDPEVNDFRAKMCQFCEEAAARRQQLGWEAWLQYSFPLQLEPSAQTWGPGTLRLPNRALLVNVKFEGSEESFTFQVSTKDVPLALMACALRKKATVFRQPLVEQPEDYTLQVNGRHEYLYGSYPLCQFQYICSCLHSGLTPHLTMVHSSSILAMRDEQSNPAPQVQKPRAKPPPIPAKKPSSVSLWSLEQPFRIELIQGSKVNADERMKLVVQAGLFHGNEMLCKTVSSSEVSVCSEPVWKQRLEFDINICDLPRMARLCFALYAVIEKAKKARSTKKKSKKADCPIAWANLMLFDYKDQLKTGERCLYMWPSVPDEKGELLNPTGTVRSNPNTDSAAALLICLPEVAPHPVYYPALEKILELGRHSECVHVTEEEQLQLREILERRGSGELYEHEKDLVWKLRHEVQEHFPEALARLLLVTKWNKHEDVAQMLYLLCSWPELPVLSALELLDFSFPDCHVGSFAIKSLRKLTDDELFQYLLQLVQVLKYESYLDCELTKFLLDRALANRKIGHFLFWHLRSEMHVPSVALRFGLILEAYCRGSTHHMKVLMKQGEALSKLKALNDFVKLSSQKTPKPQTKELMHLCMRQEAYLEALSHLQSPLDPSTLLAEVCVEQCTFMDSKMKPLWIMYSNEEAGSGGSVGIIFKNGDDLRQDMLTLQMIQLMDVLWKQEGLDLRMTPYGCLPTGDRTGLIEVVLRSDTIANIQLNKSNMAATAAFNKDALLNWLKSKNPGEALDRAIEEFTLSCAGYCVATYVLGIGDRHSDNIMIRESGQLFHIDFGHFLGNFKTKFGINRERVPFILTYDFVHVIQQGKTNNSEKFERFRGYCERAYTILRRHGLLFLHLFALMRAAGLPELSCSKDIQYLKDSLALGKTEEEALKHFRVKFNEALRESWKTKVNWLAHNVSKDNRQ
Sequence of PI3K-δ (PI3K(p1108/p857) (h)) (P27986 whole entry partner, the tested form may be a part): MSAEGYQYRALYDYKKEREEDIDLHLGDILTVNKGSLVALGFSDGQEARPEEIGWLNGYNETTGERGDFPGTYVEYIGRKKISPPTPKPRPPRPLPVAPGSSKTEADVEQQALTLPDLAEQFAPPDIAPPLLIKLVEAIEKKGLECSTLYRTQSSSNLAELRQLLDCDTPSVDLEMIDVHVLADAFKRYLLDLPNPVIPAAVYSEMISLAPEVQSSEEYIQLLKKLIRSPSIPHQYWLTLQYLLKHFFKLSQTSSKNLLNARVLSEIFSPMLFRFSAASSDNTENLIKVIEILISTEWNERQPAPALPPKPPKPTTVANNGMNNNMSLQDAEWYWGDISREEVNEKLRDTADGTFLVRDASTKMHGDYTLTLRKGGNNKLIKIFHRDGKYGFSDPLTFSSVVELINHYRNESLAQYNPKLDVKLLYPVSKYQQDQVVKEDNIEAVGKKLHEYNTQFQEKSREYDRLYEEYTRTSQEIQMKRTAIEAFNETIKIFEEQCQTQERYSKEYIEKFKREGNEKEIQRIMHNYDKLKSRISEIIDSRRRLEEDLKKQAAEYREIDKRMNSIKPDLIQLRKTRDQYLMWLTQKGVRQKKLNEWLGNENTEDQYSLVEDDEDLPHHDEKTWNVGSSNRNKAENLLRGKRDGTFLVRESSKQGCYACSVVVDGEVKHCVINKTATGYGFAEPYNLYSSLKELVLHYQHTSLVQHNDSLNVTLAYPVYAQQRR
Procedure, shortened: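 HTRF read-out (665/620 nm ratio ×10000) used Eu-labelled anti-GST, GST-tagged GRP1 PH domain and streptavidin-allophycocyanin after EDTA/PIP3 stop.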

DNA-PK(h) = DNA-PK(h) (Homo sapiens, UniProt P78527); test: Evaluation of inhibitory activity against DNA-PK (HTRF kinase assay, GST-cMyc-p53 substrate); type: biochemical; conditions: for inhibition at 0.01 µM: compound concentration 0.01 μM, read-out: EXP_VALUE(% Inhibition) DNA-PK(h) 0.01 μM; for inhibition at 0.1 µM: read-out: EXP_VALUE(% Inhibition) DNA-PK(h) 0.1 μM
Procedure, shortened: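 p53 Ser15 phosphorylation by human DNA-PK was measured by time-resolved FRET ratio (665/620 nm ×10000) using Eu-labelled anti-phospho-Ser15 and d2 anti-GST antibodies. Substrate GST-cMyc-p53 at 50 μM; Mg/ATP-initiated, 30 min at room temperature, EDTA stop.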

Structure (SMILES)	inhibition at 0.01 µM [1] [%]	inhibition at 0.1 µM ([1]; compound concentration 0.1 μM) [%]	inhibition at 0.01 µM (DNA-PK(h)) [%]	inhibition at 0.1 µM (DNA-PK(h); compound concentration 0.1 μM) [%]	inhibition at 0.1 µM ([1]; compound at 0.1 μM) [%]	inhibition at 0.1 µM (DNA-PK(h); compound at 0.1 μM) [%]
C[C@H](Nc1ncnc2[nH]ccc(=O)c12)c1c(Cl)c2cccc(-c3cc(F)ccc3Cl)c2c(=O)n1-c1ccccc1 [Example 107, (S)-4-((1-(4-chloro-8-(2-chloro-5-fluorophenyl)-1-oxo-2-phenyl-1,2-dihydroisoquinolin-3-yl)ethyl)amino)pyrido[2,3-d]pyrimidin-5(8H)-one]	59	91	24	54	–	–
C[C@H](Nc1ncnc2[nH]ccc(=O)c12)c1c(Cl)c2cccc(-c3ccc(Oc4ccccc4)nc3)c2c(=O)n1-c1ccccc1 [Example 185, (S)-4-((1-(4-chloro-1-oxo-8-(6-phenoxypyridin-3-yl)-2-phenyl-1,2-dihydroisoquinolin-3-yl)ethyl)amino)pyrido[2,3-d]pyrimidin-5(8H)-one]	95	–	33	–	–	–
C[C@H](Nc1ncnc2[nH]ccc(=O)c12)c1c(Cl)c2cccc(-c3cn[nH]c3)c2c(=O)n1-c1ccccc1 [Example 227, (S)-4-((1-(4-chloro-1-oxo-2-phenyl-8-(1H-pyrazol-4-yl)-1,2-dihydroisoquinolin-3-yl)ethyl)amino)pyrido[2,3-d]pyrimidin-5(8H)-one]	93	–	73	–	–	–
C[C@H](Nc1ncnc2[nH]ccc(=O)c12)c1c(Cl)c2cccc(-c3cnccn3)c2c(=O)n1-c1ccccc1 [Example 198, (S)-4-((1-(4-chloro-1-oxo-2-phenyl-8-(pyrazin-2-yl)-1,2-dihydroisoquinolin-3-yl)ethyl)amino)pyrido[2,3-d]pyrimidin-5(8H)-one]	90	–	63	–	–	–
C[C@H](Nc1ncnc2[nH]ccc(=O)c12)c1c(Cl)c2cccc(-c3ccc(-c4noc(C(C)(C)C)n4)cc3)c2c(=O)n1-c1ccccc1 [Example 161, (S)-4-((1-(8-(4-(5-(tert-butyl)-1,2,4-oxadiazol-3-yl)phenyl)-4-chloro-1-oxo-2-phenyl-1,2-dihydroisoquinolin-3-yl)ethyl)amino)pyrido[2,3-d]pyrimidin-5(8H)-one]	24	–	7	–	–	–
C[C@H](Nc1ncnc2[nH]ccc(=O)c12)c1c(Cl)c2cccc(-c3ccnc(N4CCOCC4)c3)c2c(=O)n1-c1ccccc1 [Example 190, (S)-4-((1-(4-chloro-8-(2-morpholinopyridin-4-yl)-1-oxo-2-phenyl-1,2-dihydroisoquinolin-3-yl)ethyl)amino)pyrido[2,3-d]pyrimidin-5(8H)-one]	87	–	85	–	–	–
CNC(=O)c1ccc(-c2cccc3c(Cl)c([C@H](C)Nc4ncnc5[nH]ccc(=O)c45)n(-c4ccccc4)c(=O)c23)cn1 [Example 196, (S)-5-(4-chloro-1-oxo-3-(1-((5-oxo-5,8-dihydropyrido[2,3-d]pyrimidin-4-yl)amino)ethyl)-2-phenyl-1,2-dihydroisoquinolin-8-yl)-N-methylpicolinamide]	127	–	101	–	–	–
C[C@H](Nc1ncnc2[nH]ccc(=O)c12)c1c(Cl)c2cccc(-c3ccc(C(=O)O)nc3)c2c(=O)n1-c1ccccc1 [Example 47, (S)-5-(4-chloro-1-oxo-3-(1-((5-oxo-5,8-dihydropyrido[2,3-d]pyrimidin-4-yl)amino)ethyl)-2-phenyl-1,2-dihydroisoquinolin-8-yl)picolinic acid]	86	–	48	–	–	–
C[C@H](Nc1ncnc2[nH]ccc(=O)c12)c1c(Cl)c2cccc(-c3cncnc3C3CCCC3)c2c(=O)n1-c1ccccc1 [Example 59, (S)-4-((1-(4-chloro-8-(4-cyclopentylpyrimidin-5-yl)-1-oxo-2-phenyl-1,2-dihydroisoquinolin-3-yl)ethyl)amino)pyrido[2,3-d]pyrimidin-5(8H)-one]	70	–	32	–	–	–
COc1cc(-c2cccc3c(Cl)c([C@H](C)Nc4ncnc5[nH]ccc(=O)c45)n(-c4ccccc4)c(=O)c23)cc(OC)c1F [Example 154, (S)-4-((1-(4-chloro-8-(4-fluoro-3,5-dimethoxyphenyl)-1-oxo-2-phenyl-1,2-dihydroisoquinolin-3-yl)ethyl)amino)pyrido[2,3-d]pyrimidin-5(8H)-one]	89	–	71	–	–	–

Second part, the compound after the results:

inhibition at 0.01 µM [1] [%]	inhibition at 0.1 µM ([1]; compound concentration 0.1 μM) [%]	inhibition at 0.01 µM (DNA-PK(h)) [%]	inhibition at 0.1 µM (DNA-PK(h); compound concentration 0.1 μM) [%]	inhibition at 0.1 µM ([1]; compound at 0.1 μM) [%]	inhibition at 0.1 µM (DNA-PK(h); compound at 0.1 μM) [%]	Structure (SMILES)
–	–	–	–	16	30	C[C@H](Nc1ncnc2[nH]ccc(=O)c12)c1c(Cl)c2cccc([S+]([O-])c3ccccn3)c2c(=O)n1-c1ccccc1 (stereo partly drawn) [Example 413, 4-(((1S)-1-(4-chloro-1-oxo-2-phenyl-8-(pyridin-2-ylsulfinyl)-1,2-dihydroisoquinolin-3-yl)ethyl)amino)pyrido[2,3-d]pyrimidin-5(8H)-one]
63	–	44	–	–	–	C[C@H](Nc1ncnc2[nH]ccc(=O)c12)c1c(Cl)c2cccc(NS(C)(=O)=O)c2c(=O)n1-c1ccccc1 [Example 300, (S)—N-(4-chloro-1-oxo-3-(1-((5-oxo-5,8-dihydropyrido[2,3-d]pyrimidin-4-yl)amino)ethyl)-2-phenyl-1,2-dihydroisoquinolin-8-yl) methanesulfonamide]
61	–	22	–	–	–	C[C@H](Nc1ncnc2[nH]ccc(=O)c12)c1c(Cl)c2cccc(-c3ccc4nonc4c3)c2c(=O)n1-c1ccccc1 [Example 240, (S)-4-((1-(8-(benzo[c][1,2,5]oxadiazol-5-yl)-4-chloro-1-oxo-2-phenyl-1,2-dihydroisoquinolin-3-yl)ethyl)amino)pyrido[2,3-d]pyrimidin-5(8H)-one]
44	–	67	–	–	–	C[C@H](Nc1ncnc2[nH]ccc(=O)c12)c1c(Cl)c2cccc(-c3ccc(CN4CCOCC4)cc3F)c2c(=O)n1-c1ccccc1 [Example 231, (S)-4-((1-(4-chloro-8-(2-fluoro-4-(morpholinomethyl)phenyl)-1-oxo-2-phenyl-1,2-dihydroisoquinolin-3-yl)ethyl)amino)pyrido[2,3-d]pyrimidin-5(8H)-one]
65	109	6	60	–	–	C[C@H](Nc1ncnc2[nH]ccc(=O)c12)c1c(Cl)c2cccc(N3CCOCC3)c2c(=O)n1-c1ccccc1 [Example 251, (S)-4-((1-(4-chloro-8-morpholino-1-oxo-2-phenyl-1,2-dihydroisoquinolin-3-yl)ethyl)amino)pyrido[2,3-d]pyrimidin-5(8H)-one]
53	97	4	42	–	–	C[C@H](Nc1ncnc2[nH]ccc(=O)c12)c1c(Cl)c2cccc(N3CCCC3)c2c(=O)n1-c1ccccc1 [Example 252, (S)-4-((1-(4-chloro-1-oxo-2-phenyl-8-(pyrrolidin-1-yl)-1,2-dihydroisoquinolin-3-yl)ethyl)amino)pyrido[2,3-d]pyrimidin-5(8H)-one]
17	51	-4	24	–	–	C[C@H](Nc1ncnc2[nH]ccc(=O)c12)c1c(Cl)c2cccc(N3CCN(c4ccccc4)CC3)c2c(=O)n1-c1ccccc1 [Example 326, (S)-4-((1-(4-chloro-1-oxo-2-phenyl-8-(4-phenylpiperazin-1-yl)-1,2-dihydroisoquinolin-3-yl)ethyl)amino)pyrido[2,3-d]pyrimidin-5(8H)-one]
69	96	39	76	–	–	C[C@H](Nc1ncnc2[nH]ccc(=O)c12)c1c(Cl)c2cccc(Sc3ccncc3)c2c(=O)n1-c1ccccc1 [Example 370, (S)-4-((1-(4-chloro-1-oxo-2-phenyl-8-(pyridin-4-ylthio)-1,2-dihydroisoquinolin-3-yl)ethyl)amino)pyrido[2,3-d]pyrimidin-5(8H)-one]
–	–	–	–	7	3	C[C@H](Nc1ncnc2[nH]ccc(=O)c12)c1c(Cl)c2cccc(Sc3ccc(F)cc3)c2c(=O)n1-c1ccccc1 [Example 398, (S)-4-((1-(4-chloro-8-((4-fluorophenyl)thio)-1-oxo-2-phenyl-1,2-dihydroisoquinolin-3-yl)ethyl)amino)pyrido[2,3-d]pyrimidin-5(8H)-one]
–	–	–	–	29	15	C[C@H](Nc1ncnc2[nH]ccc(=O)c12)c1c(Cl)c2cccc(Sc3ccccn3)c2c(=O)n1-c1ccccc1 [Example 412, (S)-4-((1-(4-chloro-1-oxo-2-phenyl-8-(pyridin-2-ylthio)-1,2-dihydroisoquinolin-3-yl)ethyl)amino)pyrido[2,3-d]pyrimidin-5(8H)-one]
65	–	49	–	–	–	C[C@H](Nc1ncnc2[nH]ccc(=O)c12)c1c(Cl)c2cccc(N)c2c(=O)n1-c1ccccc1 [Example 294, (S)-4-((1-(8-amino-4-chloro-1-oxo-2-phenyl-1,2-dihydroisoquinolin-3-yl)ethyl)amino)pyrido[2,3-d]pyrimidin-5(8H)-one]
–	–	–	–	92	23	C[C@H](Nc1ncnc2[nH]ccc(=O)c12)c1c(Cl)c2cccc(S(=O)(=O)c3ccc(F)cc3)c2c(=O)n1-c1ccccc1 [Example 399, (S)-4-((1-(4-chloro-8-((4-fluorophenyl)sulfonyl)-1-oxo-2-phenyl-1,2-dihydroisoquinolin-3-yl)ethyl)amino)pyrido[2,3-d]pyrimidin-5(8H)-one]
